{"source": "ChEMBL document CHEMBL4680359", "about": "“1-Pyrazolyl-5,6-Disubstituted Indazole Derivatives as LRRK2 Inhibitors for Treating Parkinson's Disease” (ACS Med Chem Lett, 2021)"}
{"target": "Leucine-rich repeat serine/threonine-protein kinase 2 (Homo sapiens, UniProt Q5S007, G2019S)", "sequence (Q5S007 whole entry G2019S, the tested form may be a part)": "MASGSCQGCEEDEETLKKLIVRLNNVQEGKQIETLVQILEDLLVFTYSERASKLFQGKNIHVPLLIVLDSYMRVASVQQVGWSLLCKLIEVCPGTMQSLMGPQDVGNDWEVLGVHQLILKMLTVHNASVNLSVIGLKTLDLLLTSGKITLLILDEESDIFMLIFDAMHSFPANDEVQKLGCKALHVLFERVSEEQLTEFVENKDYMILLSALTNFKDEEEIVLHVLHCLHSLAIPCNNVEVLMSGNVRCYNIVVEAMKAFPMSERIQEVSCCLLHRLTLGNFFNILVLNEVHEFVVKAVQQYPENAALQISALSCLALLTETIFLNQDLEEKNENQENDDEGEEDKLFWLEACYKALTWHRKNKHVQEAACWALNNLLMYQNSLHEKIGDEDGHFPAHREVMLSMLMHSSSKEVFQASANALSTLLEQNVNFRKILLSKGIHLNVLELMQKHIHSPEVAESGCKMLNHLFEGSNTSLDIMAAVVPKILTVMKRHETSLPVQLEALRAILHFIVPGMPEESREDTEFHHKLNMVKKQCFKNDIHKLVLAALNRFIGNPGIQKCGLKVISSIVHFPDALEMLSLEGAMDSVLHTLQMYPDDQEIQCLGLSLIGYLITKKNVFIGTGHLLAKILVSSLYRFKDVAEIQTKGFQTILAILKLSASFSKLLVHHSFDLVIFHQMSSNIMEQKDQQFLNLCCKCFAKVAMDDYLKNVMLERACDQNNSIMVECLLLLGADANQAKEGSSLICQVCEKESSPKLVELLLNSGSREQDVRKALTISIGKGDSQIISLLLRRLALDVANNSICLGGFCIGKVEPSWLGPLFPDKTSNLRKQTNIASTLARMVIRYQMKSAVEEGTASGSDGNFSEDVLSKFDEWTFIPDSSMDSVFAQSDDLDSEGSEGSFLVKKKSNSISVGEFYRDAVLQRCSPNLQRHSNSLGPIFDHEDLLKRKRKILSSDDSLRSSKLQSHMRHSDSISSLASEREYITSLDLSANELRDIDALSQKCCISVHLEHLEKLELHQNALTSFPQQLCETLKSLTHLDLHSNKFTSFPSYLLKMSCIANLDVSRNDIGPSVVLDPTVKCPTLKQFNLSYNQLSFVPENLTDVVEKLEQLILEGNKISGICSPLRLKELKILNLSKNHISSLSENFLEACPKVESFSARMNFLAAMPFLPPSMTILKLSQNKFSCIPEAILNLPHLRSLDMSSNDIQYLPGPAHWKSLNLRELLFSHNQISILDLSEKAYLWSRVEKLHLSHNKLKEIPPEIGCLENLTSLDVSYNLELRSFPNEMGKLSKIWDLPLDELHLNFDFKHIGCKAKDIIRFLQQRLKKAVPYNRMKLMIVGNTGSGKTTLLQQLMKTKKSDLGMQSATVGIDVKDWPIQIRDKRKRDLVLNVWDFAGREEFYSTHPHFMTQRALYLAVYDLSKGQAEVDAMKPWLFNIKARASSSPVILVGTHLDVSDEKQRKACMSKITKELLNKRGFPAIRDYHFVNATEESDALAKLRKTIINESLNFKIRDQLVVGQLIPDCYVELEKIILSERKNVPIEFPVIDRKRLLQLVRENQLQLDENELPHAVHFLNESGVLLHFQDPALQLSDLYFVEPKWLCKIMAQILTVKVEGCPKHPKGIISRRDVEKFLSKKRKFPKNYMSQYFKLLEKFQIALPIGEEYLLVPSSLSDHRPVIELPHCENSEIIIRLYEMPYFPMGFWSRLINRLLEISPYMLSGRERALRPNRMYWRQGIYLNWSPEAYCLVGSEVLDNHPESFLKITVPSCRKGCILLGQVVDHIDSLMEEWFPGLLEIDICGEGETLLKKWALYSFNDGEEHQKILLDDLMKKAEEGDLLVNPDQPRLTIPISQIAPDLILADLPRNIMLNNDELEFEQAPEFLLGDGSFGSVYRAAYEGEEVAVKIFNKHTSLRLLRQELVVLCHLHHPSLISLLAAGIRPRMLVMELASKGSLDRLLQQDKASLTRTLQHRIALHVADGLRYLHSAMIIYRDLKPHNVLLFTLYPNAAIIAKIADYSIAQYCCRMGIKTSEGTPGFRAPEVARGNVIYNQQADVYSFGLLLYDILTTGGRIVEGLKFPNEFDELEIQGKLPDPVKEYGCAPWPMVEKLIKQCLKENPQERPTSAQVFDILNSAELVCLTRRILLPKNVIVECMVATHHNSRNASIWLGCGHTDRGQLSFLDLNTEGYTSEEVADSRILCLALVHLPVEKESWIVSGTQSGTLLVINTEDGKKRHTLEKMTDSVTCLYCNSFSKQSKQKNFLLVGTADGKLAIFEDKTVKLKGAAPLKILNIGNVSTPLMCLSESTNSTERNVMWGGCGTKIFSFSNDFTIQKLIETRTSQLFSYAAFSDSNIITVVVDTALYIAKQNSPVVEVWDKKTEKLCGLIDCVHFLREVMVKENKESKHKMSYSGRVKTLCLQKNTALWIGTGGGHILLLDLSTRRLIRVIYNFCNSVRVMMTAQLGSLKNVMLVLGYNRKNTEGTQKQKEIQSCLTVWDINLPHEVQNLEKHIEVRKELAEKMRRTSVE", "assay": "Inhibition of GST-tagged truncated human LRRK2 G2019S mutant using fluorescein labeled LRRKtide peptide as substrate preincubated for 15 mins followed by substrate addition measured after 90 mins in presence of ATP at Km concentration by TR-FRET Lanthascreen assay", "units": {"IC50": "µM"}}
{"smiles": "Cc1cc2cnn(-c3cnn(C45CC(C4)C5)c3)c2cc1N1CCN([C@@H]2COC[C@@H]2O)CC1", "IC50": 0.259}
{"smiles": "OC1(c2cncs2)CCN(c2cc3c(cnn3-c3cnn(C4CC4)c3)cc2Cl)CC1", "IC50": 0.0975}
{"smiles": "COCC12CC(n3cc(-n4ncc5cc(Cl)c(N6CCN([C@]7(C)COC[C@@H]7O)CC6)cc54)cn3)(C1)C2", "IC50": "< 0.0804"}
{"smiles": "CO[C@H]1COC[C@H]1N1CCN(c2cc3c(cnn3-c3cnn(C45CC(C4)C5)c3)cc2Cl)CC1", "IC50": 0.104}
{"smiles": "C[C@@]1(N2CCN(c3cc4c(cnn4-c4cnn(C56CC(C5)C6)c4)cc3Cl)CC2)CC[C@H]1O", "IC50": 0.154}
{"smiles": "[2H]C([2H])([2H])OCC12CC(n3cc(-n4ncc5cc(Cl)c(N6CCN([C@]7(C)COC[C@@H]7O)CC6)cc54)cn3)(C1)C2", "IC50": 0.157}
